In ChEMBL document CHEMBL1165915, “Dual Src and Abl inhibitors target wild type Abl and the AblT315I Imatinib-resistant mutant with different mechanisms” (Bioorg Med Chem, 2010):

What was measured:
[1] = organism: Homo sapiens; assay: Selectivity ratio of Ki for human recombinant ABL T315I mutant to Ki for human recombinant ABL using ATP as substrate
[2] = organism: Homo sapiens; assay: Selectivity ratio of Ki for human recombinant ABL T315I mutant to Ki for human recombinant ABL using abtide peptide as substrate

Row | Compound | Ratio Ki [1] | Ratio Ki [2]
1 | NC(=O)c1cccc(-c2cc(Nc3ccc(OC(F)(F)F)cc3)ncn2)c1 | 40 | 40
2 | Cc1ccc(NC(=O)c2ccc(CN3CCN(C)CC3)cc2)cc1Nc1nccc(-c2cccnc2)n1 | 20 | 20
